One assay concerns the target hKCNQ2/3 (Homo sapiens, UniProt O43525+O43526). Briefly: Fluorescence assay using a voltage sensitive dye (BMG). The class given is cell-based. The settings on record: agonistic activity at 10 μM, CHO-K1 cells expressing KCNQ2/3; read-out: BMG AG %@10 μm. How it is done:
11. Biological Data 12. Fluorescence Assay Using a Voltage Sensitive Dye
Human CHO-K1 cells expressing KCNQ2/3 channels are cultivated adherently at 37° C., 5% CO2 and 95% humidity in cell culture bottles (e.g. 80 cm^2 TC flasks, Nunc) with MEM Alpha Medium (1×, liquid, Invitrogen, #22571), 10% fetal calf serum (FCS) (Invitrogen, #10270-106, heat-inactivated) and the necessary selection antibiotics.
Before being sown out for the measurements, the cells are washed with a 1×DPBS buffer without Ca^2+/Mg^2+ (e.g. Invitrogen, #14190-094) and detached from the bottom of the culture vessel by means of Accutase (PAA Laboratories, #L11-007) (incubation with Accutase for 15 min at 37° C.). The cell count then present is determined using a CASY™ cell counter (TCC model, Schärfe System) in order subsequently to apply 20,000 cells/well/100 μl of the described nutrient medium to 96-well measuring plates of the Corning™ CellBIND™ type (Flat Clear Bottom Black Polystyrene Microplates, #3340). Incubation is then carried out for one hour at room temperature, without gassing or adjusting the humidity, followed by incubation for 24 hours at 37° C., 5% CO2 and 95% humidity.
The voltage-sensitive fluorescent dye from the Membrane Potential Assay Kit (Red™ Bulk format part R8123 for FLIPR, Molecular Devices™) is prepared by dissolving the contents of a vessel Membrane Potential Assay Kit Red Component A in 200 ml of extracellular buffer (ES buffer, 120 mM NaCl, 1 mM KCl, 10 mM HEPES, 2 mM CaCl2, 2 mM MgCl2, 10 mM glucose; pH 7.4). After removal of the nutrient medium, the cells are washed with 200 μl of ES buffer, then covered with a layer of 100 μl of the dye solution prepared above and incubated for 45 min at room temperature with the exclusion of light.
The fluorescence measurements are carried out with a BMG Labtech FLUOstar™ or BMG Labtech POLARstar™ instrument (525 nm excitation, 560 nm emission, Bottom Read mode). After incubation of the dye, […] of the test substances in the desired concentrations, or 50 μl of ES buffer for control purposes, are introduced into separate cavities of the measuring plate and incubated for 30 min at room temperature while being shielded from light. The fluorescence intensity of the dye is then measured for 5 min and the fluorescence value F1 of each well is thus determined at a given, constant time. 15 μl of a […] KCl solution ([…]) are then added to each well. The change in fluorescence is subsequently measured until all the relevant measured values have been obtained (mainly 5-30 min). At a given time after KCl application, a fluorescence value F2 is determined, in this case at the time of the fluorescence peak.
For calculation, the fluorescence intensity F2 is compared with the fluorescence intensity F1, and the agonistic activity of the target compound on the potassium channel is determined therefrom. F2 and F1 are calculated as follows:
[formula] In order to determine whether a substance has an agonistic effect,
[formula] for example, can be compared with
[formula] determined by adding to the reaction batch only the buffer solution instead of the substance to be tested, determining the value F1K of the fluorescence intensity, adding the potassium ions as described above and measuring a value F2K of the fluorescence intensity. Then F2K and F1K are calculated as follows: […]
A substance has an agonistic activity on the potassium channel when
[formula] is greater than
[formula] Independently of the comparison of
[formula] it is also possible to conclude that a target compound has agonistic activity if an increase in
[formula] is to be observed as the dosage of the target compound increases. Calculations of EC50 and IC50 values are carried out with the aid of “Prism 4” software (GraphPad Software™). The following compounds were tested by way of example: […]

The subject of assay [1] is neuropathic pain (cold allodynia). Briefly: Bennett model: neuropathic pain (chronic constriction injury, cold allodynia). The format is in vivo, mouse or rat. Particulars: i.v. administration, dose 10 mg/kg. How it is done:
Bennett Model: Neuropathic Pain in the Mouse and in the Rat The study of activity in neuropathic pain was carried out in the Bennett model (chronic constriction injury; Bennett and Xie, 1988, Pain 33: 87-107). Sprague-Dawley rats weighing 140-160 g are provided, under Narcoren narcosis, with four loose ligations of the right nervus ischiaticus. NMRI mice weighing 16-18 g are provided, under Ketavet-Rompun narcosis, with three loose ligations of the right nervus ischiaticus. The animals develop hypersensitivity of the paw innervated by the damaged nerve, and after a one-week recovery phase, the hypersensitivity is quantified over a period of about four weeks by means of a 4° C. cold metal plate (cold allodynia). The animals are observed on the plate for a period of 2 min and the number of reactions of pulling away the damaged paw is measured. […] The size of the group is n=10, the significance of an anti-allodynic action (*=p<0.05) is determined by means of a variance analysis with repeated measurement and a post hoc analysis according to Bonferroni.

Assay [2] concerns mononeuropathic pain (mechanical allodynia). Briefly: Chung model: mononeuropathic pain after spinal nerve ligation (mechanical allodynia). The class given is in vivo, Sprague-Dawley rats. The settings on record: Rattus norvegicus, iv; i.v. administration. Here is the method: Chung Model: Mononeuropathic Pain after Spinal Nerve Ligation
Animals: Male Sprague-Dawley rats (140-160 g) from a commercial breeder (Janvier, Genest St. Isle, France) were kept under a 12:12 h light-dark rhythm. The animals received food and tap water ad libitum. A period of one week was observed between delivery of the animals and the operation. After the operation, the animals were tested several times over a period of 4-5 weeks, a washing-out time of at least one week being observed. Description of the model: Under pentobarbital narcosis (Narcoren®, 60 mg/kg i.p., Merial GmbH, Hallbergmoos, Germany), the left L5, L6 spinal nerves were exposed by removing a section of the paravertebral muscle and a section of the left spinous process of the L5 lumbar vertebral body. […] The pull-back threshold was measured on the ipsi- and/or contra-lateral rear paw by means of an electronic from Frey Filamentes (Somedic A B, Malmö, Sweden). […] The data were determined as % maximum possible effect (% MPE) from the preliminary tests on the individual animals (=0 MPE) and the test values of an independent sham control group (=100% MPE). […] The data were analyzed by variance analysis with repeated measurements and a post hoc analysis according to Bonferroni. […]

The structures appear in SMILES notation.

Take `O=C(CCC(=O)N1CCn2cccc2C1c1ccccc1)NCc1cccc(C(F)(F)F)c1` (stereo not drawn) [Example 2, 4-oxo-4-(1-phenyl-3,4-dihydro-1H-pyrrolo[1,2-a]pyrazin-2-yl)-N-(3-trifluoromethyl-benzyl)-butyramide]: the activation at 10 µM on hKCNQ2/3 was found to be 84%. The “% MPE in the Bennett model” value in assay [1] amounted to 40 % MPE. Besides, in assay [2], the ED50 was found to be 2.8 mg/kg.

Usually ED50 stands for the midpoint of the dose-response relation. A low value points to an effect at a small dose.

The values are drawn from US8017772B2, “Substituted tetrahydropyrrolopyrazine compounds and the use thereof in the treatment and/or inhibition of pain” (Gruenenthal GmbH, priority 2006, dated 2011).
